We go through five compounds from ChEMBL document CHEMBL1201862, “PubChem BioAssay data set” (2004).

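Where inhibition never reached the appropriate level, the endpoint shown equals the highest concentration tested. Otherwise, values were interpolated linearly from a five-concentration, 48-hour dose response in 96-well plates. Abbreviation: GI50, concentration required for 50% inhibition of growth.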 Activity calls are given as the source filed them. No stated cut-off is given here; in the data, active = GI50 up to about 1.1 µM and inactive = higher.

Test systems include PC-3; SNB-19; MCF7; K562; HOP-62; ACHN; U-251; IGROV-1; SF-268; TK-10; OVCAR-3; SF-295; HCC 2998; SK-MEL-2; HCT-15; RXF 393.
Assay in all cases: growth of human tumour cells (NCI), 48 h

Regarding `Cc1ncc2c(n1)CCC1=C2OS(=O)(=O)CC1N(C)C` (stereo not given), the GI50 in the assay with PC-3 is > 100 µM (inactive); in the assay with SNB-19, > 100 µM (inactive); in the assay on MCF7 it was > 100 µM (inactive); in the assay with K562, > 100 µM (inactive); in the assay on HOP-62 it was 76.6 µM (inactive); with ACHN, > 100 µM (inactive). Further, the GI50 in the assay with U-251, with IGROV-1, in the assay on SF-268, in the assay on TK-10 and with OVCAR-3 was > 100 µM (inactive) each time.

For the compound `O=c1cnnc2sc(=S)[nH]n12`, the GI50 is 26.7 µM (inactive) in the assay on PC-3; 27.4 µM (inactive) with SNB-19; 2.97 µM (inactive) in the assay with SF-295; 14.7 µM (inactive) in the assay on MCF7; 15.6 µM (inactive) in the assay with K562; 2.61 µM (inactive) with HOP-62. Besides, the GI50 is 53.5 µM (inactive) in the assay with ACHN; 44.5 µM (inactive) with HCC 2998; > 100 µM (inactive) with SK-MEL-2; 22.1 µM (inactive) in the assay with U-251; 24 µM (inactive) in the assay with IGROV-1; 5.04 µM (inactive) in the assay with SF-268. Moreover, the figures for the GI50 with HCT-15 and in the assay with OVCAR-3 were 19.6 µM and 32.4 µM (inactive), respectively.

Turning to `Cc1cc(C)c(S(=O)(=O)N(CCCCCCN)OCCCN)c(C)c1`, the GI50 in the assay with PC-3 is 14.6 µM (inactive); with SNB-19, 19.3 µM (inactive); in the assay with SF-295, 18.5 µM (inactive); in the assay on MCF7, 19.8 µM (inactive); in the assay on K562, 26.4 µM (inactive); in the assay on HOP-62, 20.9 µM (inactive). For the same compound, the GI50 was 17.2 µM (inactive) with ACHN; 16.6 µM (inactive) with HCC 2998; 20.2 µM (inactive) in the assay with SK-MEL-2; 16.2 µM (inactive) with U-251; 13.9 µM (inactive) with IGROV-1; 16.5 µM (inactive) with SF-268. Besides, the GI50 is 17.7 µM with HCT-15, 15.4 µM (inactive) in the assay with TK-10 and 19.9 µM (inactive) in the assay on OVCAR-3.

As for `CCN(CC)CCNC(=O)c1cc2cc(NC(=O)c3cc4cc(NC(=O)c5cc6cc(N)ccc6[nH]5)ccc4[nH]3)ccc2[nH]1`, the GI50 in the assay on PC-3, in the assay with SNB-19, in the assay on SF-295, with K562, in the assay with HOP-62 and with ACHN was > 100 µM (inactive) each time. In addition, the GI50 in the assay on RXF 393, with HCC 2998, in the assay with SK-MEL-2, with U-251, in the assay with IGROV-1 and in the assay with SF-268 was > 100 µM (inactive) throughout. Besides, the GI50 in the assay with HCT-15 was more than 100 µM; in the assay with TK-10 it was > 100 µM (inactive); with OVCAR-3 it was > 100 µM (inactive).

Regarding `S=C(N/N=C/c1ccccn1)N1CCCCCC1`, the GI50 with PC-3 is < 0.01 µM (active); in the assay on SNB-19, 0.416 µM (active); in the assay on SF-295, 0.124 µM (active); in the assay on MCF7, < 0.01 µM (active); in the assay on K562 it was < 0.01 µM (active); with HOP-62, < 0.01 µM (active). For the same compound, the GI50 in the assay with ACHN is < 0.01 µM (active); with HCC 2998 it was 0.444 µM (active); with SK-MEL-2, 0.0659 µM (active); in the assay with U-251, < 0.01 µM (active); with IGROV-1, < 0.01 µM (active); in the assay with SF-268, < 0.0121 µM (active). Also, the GI50 was less than 0.01 µM in the assay with HCT-15, 0.0101 µM (active) in the assay on TK-10 and < 0.01 µM (active) with OVCAR-3.
